Source: patent US20260355171A1, “INHIBITORS AND USES THEREFOR” (priority 2022, published 2026)

Key:
[1] = tested on: PHP.B hSyn-NSP5-V5 adeno-associated virus; experiment: Rota-rod motor testing; type: in vivo, mouse; conditions: 10 mg/kg daily, three-day testing, 15-17 days post AAV, vs Paxlovid
Description: (§1) In vivo testing was performed on 5-month-old female C57BL/6 wildtype mice injected intravenously with PHP.B hSyn-NSP5-V5 adeno-associated virus (AAV) and treated daily with compound 22 (10 mg/kg), Paxlovid (nirmatrelvir/ritonavir) (10 mg/kg nirmatrelvir: 3.33 mg/kg ritonavir) or a vehicle control (n=10 per group).
Motor testing was performed on the Rota-rod five times daily over a three-day testing period as previously described (refer to Ke et al. (2015) Acta Neuropathol, 130: 661-678). Motor coordination was also assessed using the hanging wire test at 14 and 22 days post injection with the AAV, which assessed the time hanging upside down on a wire grid (refer to Chan et al. (2020) Am J Path, 190(8): 1713-1722). Anxiety, disinhibition and exploratory behaviour was assessed using the elevated plus maze (EPM) test as previously described (refer to Ke et al. (2015) Acta Neuropathol, 130: 661-678).

[2] = tested on: PHP.B hSyn-NSP5-V5 adeno-associated virus; experiment: Weight loss after AAV injection; type: in vivo, mouse; conditions: 10 mg/kg daily, vs Paxlovid and vehicle; significant at day 19 to end
Description: as §1
Weight loss was monitored over a 21-day period post injection with the AAV.

primary neurons [3] = experiment: Neuronal cell death in the presence of H2O2; type: cell-based, mouse; conditions: 1 or 10 μM compound, 100 μM H2O2
Description: (§2) Primary neurons were treated with 0.4, 1, 2, 10 or 50 μM of compound 2 or compound 22 (prepared according to Example 2). NSP5 was added to primary neurons at DIV11, and compound 2 or 22 was added 48 hours later. Cells were treated with propidium iodide 48 hours after compound addition. Cells were washed with PBS and fixed with 4% PFA. Cells were then washed and stained with DAPI. Images of cells were taken with ZEISS Axioscan 7 microscope slide scanner. Cell death was determined by Image J analysis, counting the death cell (red, PI)) vs all cells (blue, DAPI).
(§3) One hour after compound addition (1 or 10 μM of compound 2 or compound 22) neurons were treated with a cytotoxic agent (100 μM N-methyl-D-aspartate (NMDA), 100 μM H2O2 or 5 μM staurosporine). One hour after treatment with the cytotoxic agent, the media was replaced with fresh media and the neurons were incubated for 24 hours. A final concentration of 1 μM propidium iodide (PI) was added into the well and incubated for 5 mins. Cells were washed with phosphate-buffered saline (PBS) and then fixed with 4% PFA. Cells were then washed and stained with DAPI, and cell death determined as described above.

[4] = Adverse reactions in pharmacokinetic study; type: in vivo, mouse; conditions: 24-hour sampling period, IV 3 mg/kg and IP 10 mg/kg
Description: The pharmacokinetics of compound 22 was studied in non-fasted male C57BL/6 mice weighing 21.1-26.5 g. Mice had access to food and water ad libitum throughout the pre- and post-dose sampling period.
Compound 22 was dosed to mice by bolus injection into the lateral tail vein (2 mL/kg) for IV administration and by injection into the IP cavity (5 mL/kg) for IP administration. After dosing, blood samples were collected up to 24 h (n=3 mice per time point) with a maximum of three samples from each mouse via submandibular bleed (approximately 120 μL). No urine samples were collected as mice were housed in bedded cages. Blood was collected into polypropylene Eppendorf tubes containing heparin as anticoagulant. Once collected, blood samples were centrifuged immediately, supernatant plasma was removed, and stored at −80 °C until analysis by liquid chromatography-mass spectrometry (LC-MS). A summary of the bioanalytical method is included in Table 5.

primary neurons [5] = experiment: Neuronal cell death in the presence of staurosporine; type: cell-based, mouse; conditions: 1 or 10 μM compound, 5 μM staurosporine
Description: as §2, §3

[6] = Unbound fraction (fu) in mouse plasma; type: in vitro ADME
primary neurons [7] = experiment: Cytotoxicity / neuronal cell death in the presence of NSP5 (PI/DAPI)
[8] = In vivo whole blood-to-plasma ratio; conditions: IV 3 mg/kg, 1 h post dose, mouse blood, n=3; read-out: B/P ratio (whole blood-to-plasma)
Description: As part of the assessment of the IV pharmacokinetics, blood was collected from mice (n=3) at 1 h post dose for the purposes of determining the whole blood-to-plasma (B/P) ratio.
Blood was collected via cardiac puncture (whilst under gaseous isoflurane anaesthesia) into tubes containing heparin. The haematocrit was determined via centrifugation [13000×g for 4 min using a Clemets® Microhematocrit centrifuge (Clements, Rydalmere, Australia) and Safecap® Plain Self-sealing Mylar Wrapped capillary tubes (Safe-Tec Clinical Products LLC, Broomall, USA)], and values ranged from 32% to 36% for blood samples across the three mice.
Each blood aliquot (25 μL) was collected and matrix matched with an equivalent volume of blank plasma. The remainder of the blood sample was centrifuged and 1×25 μL plasma aliquot was collected and matrix matched with an equivalent volume of blank blood. Samples were frozen on dry ice and subsequently stored at −80 °C until analysis by LC-MS. The B/P ratio was calculated on the basis of the LC-MS response of compound 22 in blood and plasma following centrifugation of whole blood and the average B/P ratio (n=3 mice) is reported.

NC(=O)C1CCN(c2ncccc2CNCc2cccc3[nH]ccc23)CC1 [Compound 22]
Rota-rod average time of five daily trials [1]: performed significantly better than Paxlovid-treated mice
Rota-rod maximum time of five daily trials [1]: performed significantly better than Paxlovid-treated mice
Weight loss from 17 days post injection [2]: weight loss was less severe
Protection from H2O2-induced neurotoxicity (primary neurons [3]): did not protect
Adverse reactions or compound-related side effects [4]: no adverse reactions or compound-related side effects observed
Protection from staurosporine-induced neurotoxicity (primary neurons [5]): did not protect
fraction unbound [6]: 0.547
Reduction of neuronal cell death caused by NSP5 (primary neurons [7]; 0.4, 1, 2, 10 or 50 μM, 48 hours): selectively reduced neuronal cell death caused by NSP5
Cell death caused by compound (primary neurons [7]; therapeutic concentrations (nM to low μM)): did not cause any cell death
blood plasma ratio at 1 h [8]: 1.4
